In PubChem BioAssay (NCI):
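Exposure lasted 48 hours, with cells grown in 96-well plates and compounds tested at five concentrations. TGI: total growth inhibition.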

Tests used:
Experiment in all cases: inhibition of tumour cell growth, NCI panel, 48 h
[1] = test system: A549 NSCLC
[2] = test system: ACHN renal
[3] = test system: HL-60(TB) leukemia
[4] = test system: HOP-62 NSCLC
[5] = test system: K-562 leukemia
[6] = test system: OVCAR-5 ovarian
[7] = test system: RPMI-8226 leukemia
[8] = test system: SK-MEL-2 melanoma
[9] = test system: DLD-1 colon
[10] = test system: KM20L2 colon
[11] = test system: LXFL 529 NSCLC

Row | Compound | TGI [1] [µM] | TGI [2] [µM] | TGI [3] [µM] | TGI [4] [µM] | TGI [5] [µM] | TGI [6] [µM] | TGI [7] [µM] | TGI [8] [µM] | TGI [9] [µM] | TGI [10] [µM] | TGI [11] [µM]
1 | Cc1ccc(/C=C2\CCCC(CN3CCCCC3)C2=O)cc1 (stereo not drawn) | 33.1 | 16.4 | > 100 | 35.4 | > 100 | 28.7 | > 100 | 9.91 | – | – | –
2 | N#C/C(=C\c1c[nH]c2ccccc12)C(=O)c1ccc(O)c(O)c1 | 98.7 | > 94.3 | 59.5 | > 61.5 | > 67 | > 100 | > 31.6 | > 80.3 | > 100 | > 100 | > 100
3 | CC[C@@H](/C=C\CCC(=O)C[C@H](O)CCC=C(C)C)O[Si](C(C)C)(C(C)C)C(C)C | > 100 | > 100 | > 100 | > 100 | > 100 | > 100 | > 100 | > 100 | – | – | –
4 | c1ccc(CSCCc2ccncc2)cc1 | > 100 | > 100 | 89.6 | > 100 | > 100 | > 100 | > 100 | > 100 | – | – | –
5 | Cc1ccc(CC(C)N)cc1 (stereo not drawn) | > 100 | > 100 | > 100 | > 100 | > 100 | > 100 | > 100 | > 100 | > 100 | > 100 | > 100
6 | CC1=NN(C(=O)CSc2nc3ccc(I)cc3c(=O)n2Cc2ccccc2)C(=O)C1 | > 100 | > 100 | > 100 | > 100 | 74.9 | > 100 | > 100 | 41 | – | – | –
7 | COc1cc(-c2cc(-c3cc([N+](=O)[O-])c(/C=N/NC(=O)c4ccncc4)o3)ccc2OC)ccc1C | > 100 | > 100 | – | > 100 | > 100 | > 100 | > 100 | > 100 | > 100 | > 100 | > 100
8 | CCC(c1c[nH]c2ccc(Br)cc12)c1c[nH]c2ccc(Br)cc12 | 15 | 12.8 | 16.3 | 22.3 | 6.57 | 16.6 | 11.3 | 23.1 | – | – | –
9 | O=[As](O)(O)c1ccc(N=Nc2ccc(O)cc2)cc1 | > 100 | > 100 | > 100 | > 100 | > 100 | > 100 | > 100 | > 100 | – | – | –
10 | O=C(Cc1ccccc1)NN1C(=O)C(Cl)C1c1ccccc1O (stereo not drawn) | > 100 | > 100 | 18.8 | > 100 | > 100 | > 100 | > 100 | > 100 | > 100 | > 100 | > 100
11 | CCN(CC)CCNCc1cc(Cl)cc2c1OCOC2 | > 10 | > 10 | > 10 | > 10 | > 10 | > 10 | > 10 | > 10 | – | – | –
12 | C[C@H]1C=C2[C@@H]3CC(C)(C(=O)O)CC[C@]3(C)CC[C@]2(C)[C@]2(C)CC[C@H]3C(C)(C)[C@@H](OC(=O)c4cccc5c(=O)c6ccccc6[nH]c45)CC[C@]3(C)[C@@H]12 (stereo partly drawn) | > 100 | > 100 | > 100 | > 100 | > 100 | > 100 | > 100 | > 100 | – | – | –
13 | COC(=O)C1=C(OC(=O)c2ccccc2)C(C(=O)OC)[C@]2(O)[C@@H](C(=O)OC)[C@H]1C[C@@H](c1ccccc1)[C@@H]2C(=O)OC (stereo partly drawn) | 34.5 | 72.4 | 21.1 | 52 | 18 | 73.9 | 13.8 | 13.9 | – | – | –
14 | CCN(CC)Cc1sc2nc3ccccc3n2c1-c1ccc(OC)cc1 | > 100 | > 100 | > 100 | > 100 | 22.7 | > 100 | 33.1 | > 100 | – | – | –
